13 compounds from patent US9120812B2, “Pyrimidooxazocine derivatives as mTOR-inhibitors” (SANOFI, priority 2012, dated 2015) can be followed below.

In assay [1] the target is mTOR (human recombinant aa mTOR 1360-2549) (Homo sapiens (Human), UniProt P42345). Kind of assay: mTOR enzymatic test by TR-FRET (phosphorylation of GFP-4EBP1). The class given is biochemical. The method in brief: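 TR-FRET detection of GFP-4EBP1 phosphorylation by a terbium-labelled anti-phospho-Thr46 antibody. Kinase reaction ran 30 min at room temperature, was quenched with EDTA (10 mM final) plus Tb-antibody (2 nM final) and left 60 min. Emission at 520 and 490 nm after 340 nm excitation, reported as the 520/490 ratio.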
Sequence of mTOR (human recombinant aa mTOR 1360-2549) (P42345 1360-2549): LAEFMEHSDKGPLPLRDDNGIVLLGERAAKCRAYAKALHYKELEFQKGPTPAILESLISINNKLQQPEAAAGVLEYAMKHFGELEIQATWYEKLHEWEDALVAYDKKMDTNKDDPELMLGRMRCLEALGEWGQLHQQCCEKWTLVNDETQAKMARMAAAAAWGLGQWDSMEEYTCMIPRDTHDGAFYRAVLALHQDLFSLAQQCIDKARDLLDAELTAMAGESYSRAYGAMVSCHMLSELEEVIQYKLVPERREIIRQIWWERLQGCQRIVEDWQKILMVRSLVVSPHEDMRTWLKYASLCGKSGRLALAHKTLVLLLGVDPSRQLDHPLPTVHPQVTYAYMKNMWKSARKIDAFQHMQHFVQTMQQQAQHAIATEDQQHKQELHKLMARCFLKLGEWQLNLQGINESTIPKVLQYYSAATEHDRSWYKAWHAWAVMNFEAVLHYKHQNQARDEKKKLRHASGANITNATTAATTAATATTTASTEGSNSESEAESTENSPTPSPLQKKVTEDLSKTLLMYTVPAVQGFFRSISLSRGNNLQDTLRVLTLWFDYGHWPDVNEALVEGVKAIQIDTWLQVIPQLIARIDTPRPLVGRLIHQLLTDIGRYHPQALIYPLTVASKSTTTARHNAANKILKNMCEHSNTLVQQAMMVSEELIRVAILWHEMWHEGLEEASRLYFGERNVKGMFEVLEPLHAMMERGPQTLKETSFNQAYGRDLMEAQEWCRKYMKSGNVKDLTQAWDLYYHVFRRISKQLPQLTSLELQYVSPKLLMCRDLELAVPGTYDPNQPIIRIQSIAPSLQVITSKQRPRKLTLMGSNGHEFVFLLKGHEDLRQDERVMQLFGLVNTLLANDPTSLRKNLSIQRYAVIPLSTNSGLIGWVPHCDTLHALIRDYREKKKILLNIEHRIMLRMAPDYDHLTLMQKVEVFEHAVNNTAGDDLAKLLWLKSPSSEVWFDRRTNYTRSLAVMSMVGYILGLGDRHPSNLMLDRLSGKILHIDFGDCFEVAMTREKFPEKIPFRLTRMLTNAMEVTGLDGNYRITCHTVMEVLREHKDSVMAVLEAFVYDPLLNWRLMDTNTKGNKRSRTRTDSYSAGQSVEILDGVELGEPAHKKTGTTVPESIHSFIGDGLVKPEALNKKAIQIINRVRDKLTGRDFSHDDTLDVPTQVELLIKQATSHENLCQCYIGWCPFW
In general terms: In TR-FRET formats the signal depends on donor and acceptor labels being close together.

Another assay addresses PI3Kα (p110α/p85α) (Homo sapiens (Human), UniProt P42336). The experiment in a line: PI3Kα enzymatic test by measuring the consumption of ATP. The class given is biochemical. In a few lines: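 p110α/p85α (1.7 μg/ml) with 50 μM PIP2 and 2 μM ATP in pH 7.5 Tris buffer with EGTA, MgCl2, Chaps, DTT; reaction 90 min. Remaining ATP measured by luciferin/luciferase luminescence; IC50 from threefold serial dilutions spanning at least 10 000-fold.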

Another assay deals with U87MG tumour cells. The experiment in a line: Test of in vitro proliferation of U87MG tumour cells. The note with it: Homo sapiens, U-87 MG, 72 h, U87MG cells, 72 hours; read-out: U87 Cell Proliferation IC50. The format is cell-based. The protocol:
Model 4: Test of in vitro Proliferation of U87MG Tumour Cells.
The cell growth is determined with the reagent CellTiter 96 AQueous One Solution Cell Proliferation Assay from Promega (Cat. No. G3581).

A further assay relates to Akt-pS473 in U87MG cells. The note with it: Homo sapiens, U-87 MG; for IC50: read-out: U87 Akt-pS473 % Inhibition or IC50, nM (IC50), U87MG cells.

A value given as a limit tells only on which side of the number the result lay.

Sequence of PI3Kα (p110α/p85α) (P42336 whole entry): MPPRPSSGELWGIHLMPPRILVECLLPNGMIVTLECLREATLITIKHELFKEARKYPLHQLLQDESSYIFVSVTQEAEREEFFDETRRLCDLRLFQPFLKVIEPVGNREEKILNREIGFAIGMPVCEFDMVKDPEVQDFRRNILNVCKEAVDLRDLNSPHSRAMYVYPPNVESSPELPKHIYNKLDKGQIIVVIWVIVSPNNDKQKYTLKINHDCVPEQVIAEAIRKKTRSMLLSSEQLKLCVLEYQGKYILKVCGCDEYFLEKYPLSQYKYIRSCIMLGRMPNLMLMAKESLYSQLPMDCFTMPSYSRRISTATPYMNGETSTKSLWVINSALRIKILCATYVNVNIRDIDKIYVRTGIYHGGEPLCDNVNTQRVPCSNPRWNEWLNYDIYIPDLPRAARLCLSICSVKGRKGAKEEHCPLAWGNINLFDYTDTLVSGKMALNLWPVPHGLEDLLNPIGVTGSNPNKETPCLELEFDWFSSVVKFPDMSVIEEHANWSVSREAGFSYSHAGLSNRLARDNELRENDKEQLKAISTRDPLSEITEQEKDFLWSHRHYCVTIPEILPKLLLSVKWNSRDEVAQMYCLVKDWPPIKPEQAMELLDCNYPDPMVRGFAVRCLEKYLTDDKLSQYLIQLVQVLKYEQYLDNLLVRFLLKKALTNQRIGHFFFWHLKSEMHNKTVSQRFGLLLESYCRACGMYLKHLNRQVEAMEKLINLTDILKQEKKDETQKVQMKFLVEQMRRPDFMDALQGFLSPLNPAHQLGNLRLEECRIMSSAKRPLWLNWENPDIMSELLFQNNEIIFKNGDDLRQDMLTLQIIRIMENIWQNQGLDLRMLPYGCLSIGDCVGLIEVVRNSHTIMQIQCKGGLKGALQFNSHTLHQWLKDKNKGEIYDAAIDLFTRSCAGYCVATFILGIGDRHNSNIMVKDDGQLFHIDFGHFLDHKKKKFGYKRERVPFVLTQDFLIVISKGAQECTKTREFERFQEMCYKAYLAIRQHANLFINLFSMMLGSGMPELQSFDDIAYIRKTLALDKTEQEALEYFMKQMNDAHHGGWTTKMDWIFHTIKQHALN
Sequence of PI3Kα (p110α/p85α) (P27986 whole entry partner): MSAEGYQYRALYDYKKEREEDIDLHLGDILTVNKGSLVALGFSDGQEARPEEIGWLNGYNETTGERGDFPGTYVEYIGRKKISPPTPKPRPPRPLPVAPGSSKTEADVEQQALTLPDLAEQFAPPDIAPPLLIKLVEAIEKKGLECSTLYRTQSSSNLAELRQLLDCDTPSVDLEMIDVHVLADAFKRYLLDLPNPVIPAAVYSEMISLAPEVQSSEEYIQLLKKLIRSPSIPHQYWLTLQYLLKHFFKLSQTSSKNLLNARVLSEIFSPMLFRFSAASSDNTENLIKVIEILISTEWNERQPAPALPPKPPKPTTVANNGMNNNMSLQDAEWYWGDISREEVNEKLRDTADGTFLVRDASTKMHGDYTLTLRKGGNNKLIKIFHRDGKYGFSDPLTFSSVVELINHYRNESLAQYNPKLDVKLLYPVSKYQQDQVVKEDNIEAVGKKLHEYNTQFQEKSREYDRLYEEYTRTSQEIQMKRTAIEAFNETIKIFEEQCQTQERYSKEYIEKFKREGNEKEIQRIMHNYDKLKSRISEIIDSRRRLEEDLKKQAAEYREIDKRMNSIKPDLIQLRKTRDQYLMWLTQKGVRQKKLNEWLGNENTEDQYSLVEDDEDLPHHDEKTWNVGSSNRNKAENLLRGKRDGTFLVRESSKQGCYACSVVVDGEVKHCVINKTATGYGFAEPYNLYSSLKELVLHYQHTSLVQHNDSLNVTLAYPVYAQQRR

As for `CCN1CC(C)(C)Oc2nc(N3CCOC[C@@H]3C)nc(-c3ccc(NC(=O)Nc4ccon4)c(C)c3)c2C1=O` [Example 26, 1-{4-[6-ethyl-8,8-dimethyl-2-((S)-3-methylmorpholin-4-yl)-5-oxo-5,6,7,8-tetrahydro-9-oxa-1,3,6-triazabenzocyclohepten-4-yl]-2-methylphenyl}-3-isoxazol-3-ylurea], the IC50 in assay [1] is 112 nM; in the assay on U87MG tumour cells, 3570 nM; with Akt-pS473 in U87MG cells, > 1000 nM. Moreover, on PI3Kα (p110α/p85α), the “PI3Ka IC50” value came out at 3860 nM.

Regarding `CNC(=O)Nc1ccc(-c2nc(N3CC4CCC(C3)O4)nc3c2C(=O)N(C)CC(C)(C)O3)cc1` [Example 38, 1-Methyl-3-{4-[6,8,8-trimethyl-2-(8-oxa-3-azabicyclo[3.2.1]oct-3-yl)-5-oxo-5,6,7,8-tetrahydro-9-oxa-1,3,6-triazabenzocyclohepten-4-yl]phenyl}urea], the IC50 in assay [1] stood at 22 nM; in the assay with U87MG tumour cells, 218 nM; in the assay with Akt-pS473 in U87MG cells, 23 nM. Besides, on PI3Kα (p110α/p85α), the “PI3Ka IC50” value was 3450 nM.

As for `CCN1CC(C)(C)Oc2nc(N3CC4CCC(C3)O4)nc(-c3ccc(NC(=O)Nc4ccccn4)c(F)c3)c2C1=O` [Example 158, 1-{4-[6-Ethyl-8,8-dimethyl-2-(8-oxa-3-azabicyclo[3.2.1]oct-3-yl)-5-oxo-5,6,7,8-tetrahydro-9-oxa-1,3,6-triazabenzocyclohepten-4-yl]-2-fluorophenyl}-3-pyridin-2-ylurea], the IC50 in assay [1] came to 64 nM; with U87MG tumour cells it was 1700 nM; in the assay on Akt-pS473 in U87MG cells, 1600 nM. Further, the “PI3Ka IC50” value on PI3Kα (p110α/p85α) is >10000 nM.

Turning to `COc1ccc(NC(=O)Nc2ccc(-c3nc(N4CCOC[C@@H]4C)nc4c3C(=O)N(C3CCOCC3)CC(C)(C)O4)cc2F)cn1` [Example 189, 1-{4-[8,8-Dimethyl-2-((S)-3-methylmorpholin-4-yl)-5-oxo-6-(tetrahydropyran-4-yl)-5,6,7,8-tetrahydro-9-oxa-1,3,6-triazabenzocyclohepten-4-yl]-2-fluorophenyl}-3-(6-methoxypyridin-3-yl)urea], the IC50 in assay [1] is 62 nM; with U87MG tumour cells, 451 nM; in the assay with Akt-pS473 in U87MG cells, 56 nM. On PI3Kα (p110α/p85α), the “PI3Ka IC50” value is 1890 nM.

With `CCN1CC(C)(C)Oc2nc(N3C4CCC3COC4)nc(-c3ccc(NC(=O)Nc4ccc(C)nc4)c(F)c3)c2C1=O` [Example 229, 1-{4-[6-Ethyl-8,8-dimethyl-2-(3-oxa-8-azabicyclo[3.2.1]oct-8-yl)-5-oxo-5,6,7,8-tetrahydro-9-oxa-1,3,6-triazabenzocyclohepten-4-yl]-2-fluorophenyl}-3-(6-methylpyridin-3-yl)urea], the IC50 in assay [1] was 43 nM; in the assay with U87MG tumour cells, 86 nM; with Akt-pS473 in U87MG cells it was 19 nM. Further, on PI3Kα (p110α/p85α), the “PI3Ka IC50” value is listed as >10000 nM.

With `CCNC(=O)Nc1ccc(-c2nc(N3CCOC[C@@H]3CC)nc3c2C(=O)N(CC)CC(C)(C)O3)cc1F` [Example 151, 1-Ethyl-3-{4-[6-ethyl-2-((S)-3-ethylmorpholin-4-yl)-8,8-dimethyl-5-oxo-5,6,7,8-tetrahydro-9-oxa-1,3,6-triazabenzocyclohepten-4-yl]-2-fluorophenyl}urea], the IC50 amounted to 116 nM in assay [1], 531 nM with U87MG tumour cells and 82 nM with Akt-pS473 in U87MG cells. Moreover, the “PI3Ka IC50” value at PI3Kα (p110α/p85α) is reported as >10000 nM.

Take `CCN1CC(C)(C)Oc2nc(N3CC4CCC(C3)O4)nc(-c3ccc(NC(=O)Nc4cc(C)on4)cc3)c2C1=O` [Example 116, 1-{4-[6-Ethyl-8,8-dimethyl-2-(8-oxa-3-azabicyclo[3.2.1]oct-3-yl)-5-oxo-5,6,7,8-tetrahydro-9-oxa-1,3,6-triazabenzocyclohepten-4-yl]phenyl}-3-(5-methylisoxazol-3-yl)urea]: the IC50 in assay [1] stood at 42 nM; in the assay on U87MG tumour cells, 282 nM; in the assay with Akt-pS473 in U87MG cells, 98 nM. Moreover, the “PI3Ka IC50” value at PI3Kα (p110α/p85α) is given as 4310 nM.

Consider `COCCN1CC(C)(C)Oc2nc(N3CC4CCC(C3)O4)nc(-c3ccc(NC(=O)Nc4ccon4)cc3)c2C1=O` [Example 172, 1-Isoxazol-3-yl-3-{4-[6-(2-methoxyethyl)-8,8-dimethyl-2-(8-oxa-3-azabicyclo[3.2.1]oct-3-yl)-5-oxo-5,6,7,8-tetrahydro-9-oxa-1,3,6-triazabenzocyclohepten-4-yl]phenyl}urea], for which the IC50 in assay [1] was 20 nM; with U87MG tumour cells, 198 nM; in the assay on Akt-pS473 in U87MG cells, 98 nM. Besides, the “PI3Ka IC50” value at PI3Kα (p110α/p85α) is <10000 nM.

For `CN1CC(C)(C)Oc2nc(N3C4CCC3COC4)nc(-c3ccc(NC(=O)Nc4ccncc4)c(F)c3)c2C1=O` [Example 82, 1-{2-Fluoro-4-[6,8,8-trimethyl-2-(3-oxa-8-azabicyclo[3.2.1]oct-8-yl)-5-oxo-5,6,7,8-tetrahydro-9-oxa-1,3,6-triazabenzocyclohepten-4-yl]phenyl}-3-pyridin-4-ylurea], the IC50 in assay [1] was found to be 21 nM; with U87MG tumour cells, 29 nM; with Akt-pS473 in U87MG cells it was 13 nM. Further, on PI3Kα (p110α/p85α), the “PI3Ka IC50” value turned out to be 2240 nM.

For orientation: inhibition means the relative decrease from the control value, in per cent. Regarding `CCN1CC(C)(C)Oc2nc(N3CC4CCC(C3)O4)nc(-c3ccc(NC(=O)Nc4ccc(C(=O)NCC(C)(C)O)cc4)cc3)c2C1=O` [Example 190, 4-(3-{4-[6-Ethyl-8,8-dimethyl-2-(8-oxa-3-azabicyclo[3.2.1]oct-3-yl)-5-oxo-5,6,7,8-tetrahydro-9-oxa-1,3,6-triazabenzocyclohepten-4-yl]phenyl}ureido)-N-(2-hydroxy-2-methylpropyl)benzamide], the figures for the IC50 (in assay [1]; in the assay on U87MG tumour cells) were 40 nM and 734 nM, respectively. Also, at PI3Kα (p110α/p85α), the “PI3Ka IC50” value was found to be 927 nM. Further, the inhibition at 3 µM in the assay on Akt-pS473 in U87MG cells (read-out: U87 Akt-pS473 % Inhibition) stood at 69%.

For `CC1(C)CN(C2CCOCC2)C(=O)c2c(nc(N3CC4CCC(C3)O4)nc2-c2ccc(NC(=O)Nc3ccon3)c(F)c2)O1` [Example 153, 1-{4-[8,8-Dimethyl-2-(8-oxa-3-azabicyclo[3.2.1]oct-3-yl)-5-oxo-6-(tetrahydropyran-4-yl)-5,6,7,8-tetrahydro-9-oxa-1,3,6-triazabenzocyclohepten-4-yl]-2-fluorophenyl}-3-isoxazol-3-ylurea], the IC50 in assay [1] came out at 31 nM; with U87MG tumour cells, 346 nM; with Akt-pS473 in U87MG cells it was 116 nM. For the same compound, the “PI3Ka IC50” value at PI3Kα (p110α/p85α) is >10000 nM.

`CCNC(=O)Nc1ccc(-c2nc(N3CC4CCC(C3)O4)nc3c2C(=O)N(C[C@@H]2CCCN2)CC(C)(C)O3)cc1F` [Example 4, 1-{4-[8,8-Dimethyl-2-(8-oxa-3-azabicyclo[3.2.1]oct-3-yl)-5-oxo-6-(S)-1-pyrrolidin-2-ylmethyl-5,6,7,8-tetrahydro-9-oxa-1,3,6-triazabenzocyclohepten-4-yl]-2-fluorophenyl}-3-ethylurea]: the IC50 was 721 nM in assay [1], > 10000 nM in the assay with U87MG tumour cells and > 3000 nM in the assay with Akt-pS473 in U87MG cells. Further, the “PI3Ka IC50” value on PI3Kα (p110α/p85α) is >10000 nM.

For `Cc1ccc(NC(=O)Nc2ccc(-c3nc(N4CC5CCC(C4)O5)nc4c3C(=O)N(C)CC(C)(C)O4)cc2F)cn1` [Example 66, 1-{2-Fluoro-4-[6,8,8-trimethyl-2-(8-oxa-3-azabicyclo[3.2.1]oct-3-yl)-5-oxo-5,6,7,8-tetrahydro-9-oxa-1,3,6-triazabenzocyclohepten-4-yl]phenyl}-3-(6-methylpyridin-3-yl)urea], the IC50 in assay [1] is 16 nM; with U87MG tumour cells, 71 nM; in the assay on Akt-pS473 in U87MG cells, 21 nM. Besides, the “PI3Ka IC50” value on PI3Kα (p110α/p85α) came to 2950 nM.
